Data on 47 compounds can be found in BindingDB's records for patent WO2025054369 (NICO Therapeutics, 2025).

A value given as a limit tells only on which side of the number the result lay.

In the experiment the target is T1, NAD(+) hydrolase SARM1 (Homo sapiens, UniProt Q6SZW1).
T1 sequence (Q6SZW1 whole entry): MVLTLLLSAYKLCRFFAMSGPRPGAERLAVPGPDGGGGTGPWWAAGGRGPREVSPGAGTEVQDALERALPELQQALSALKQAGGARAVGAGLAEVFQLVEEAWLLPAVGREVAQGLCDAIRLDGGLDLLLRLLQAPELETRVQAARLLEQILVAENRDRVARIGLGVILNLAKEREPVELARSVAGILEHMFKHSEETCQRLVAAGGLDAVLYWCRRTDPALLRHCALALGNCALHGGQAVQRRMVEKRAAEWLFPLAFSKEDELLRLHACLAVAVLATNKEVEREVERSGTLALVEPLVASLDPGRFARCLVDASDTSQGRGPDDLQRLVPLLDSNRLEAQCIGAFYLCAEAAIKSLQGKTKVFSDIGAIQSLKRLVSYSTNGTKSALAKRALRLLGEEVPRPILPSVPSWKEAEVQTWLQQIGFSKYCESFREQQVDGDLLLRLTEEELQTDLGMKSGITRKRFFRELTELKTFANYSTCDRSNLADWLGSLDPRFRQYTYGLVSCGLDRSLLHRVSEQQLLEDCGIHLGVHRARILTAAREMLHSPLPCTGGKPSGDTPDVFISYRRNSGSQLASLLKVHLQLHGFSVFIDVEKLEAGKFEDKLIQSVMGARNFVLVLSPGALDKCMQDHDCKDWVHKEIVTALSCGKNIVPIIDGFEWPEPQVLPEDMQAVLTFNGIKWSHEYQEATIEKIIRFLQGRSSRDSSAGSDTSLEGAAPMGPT
The experiment in a line: Biochemical Assay of the Compounds. Here is the method: Preparation of full-length SARM1 (FL-SARM1) lysate: HEK293T cells (ATCC: CRL-3216) were grown on 150 mm TC-treated dishes to 80-90% confluency in complete DMEM (DMEM (Thermo Fisher: 11965175) supplemented with 10% HI-FBS (VWR: 10802-772), 1x Pen/Strep (Thermo Fisher: 15140122), 1x NEAA (Thermo Fisher: 1140050), 1x glutamax (Thermo Fisher: 35050061), and 1 mM sodium pyruvate (Thermo Fisher: 11360070)) at 37 °C and 5% CO2. One hour prior to transfection, the media was replaced with fresh, 37 °C complete DMEM (20 mL per one 150 mm dish) supplemented with additional 10mM glucose (Alfa Aesar AAJ60067EQE). Per one 150 mm dish, 30 µg FL-SARM1 (SEQ. ID.1; cloned in-house) plasmid was dissolved in 1 mL DMEM at ambient temperature and were mixed by inverting the tube 8-10 times.90 µL of GenJet™ in vitro DNA transfection reagent (Ver2) was dissolved in 1 mL DMEM at ambient temperature and were mixed by inverting the tube 8-10 times. The plasmid and transfection agent solutions were combined, mixed by 8-10 inversions and incubated for 10 minutes at ambient temperature.2 mL of this transfection mixture was added to each dish containing HEK293T cells as prepared above followed by a gentle mixing of 4-5 horizontal rotations. The dishes were incubated at 37 °C and 5% CO2 for 24 h. The dishes were removed from the incubator, the medium was aspirated and the cells were scraped off using cell scrapers in ice-cold 1x PBS (5 mL/dish, Thermo Fisher Scientific 10010023). The collected cells were centrifuged at 300 g for 5 minutes at 4 °C. The supernatant was aspirated and the pellet was frozen at -80 °C until needed. The cell pellet from 30 dishes was dissolved in 30 mL 1x PBS supplemented with 4 tablets of Complete, Mini EDTA-free protease inhibitor cocktail at 4 °C. This mixture was sonicated on ice for 10 minutes at 50% amplitude with a 1 second on/1 second off interval using a Model 120 sonicator (Thermo Fisher Scientific, FB120110). The lysate was centrifuged at 16000 g for 10 minutes at 4 °C.
The compound `C[C@@H]1C[C@@H]2C[C@H](C1)N2C(=O)Nc1ccc(Cl)c(N2CCOC2=O)c1` [WO2025054369, Example 94] gave an IC50 of 5500 nM.

`Cc1ccc(NC(=O)N2C3CCCC2C3)cc1N1CCN(C)C1=O` [WO2025054369, Example 97] showed an IC50 of 5500 nM.

`Cc1ccc(NC(=O)N2C3CCCC2C3)cc1C1CC1` [WO2025054369, Example 22] yielded a 50% inhibitory concentration (IC50) of 5500 nM.

Consider `CC1CC2CC(C1)N2C(=O)Nc1ccc(Cl)c([C@@H]2CCC[C@@H]2C#N)c1` (some centres not stated) [WO2025054369, Example 60], for which the IC50 was under 1000 nM.

`Cc1nnc([C@]23CCC[C@H](C2)N3C(=O)Nc2ccc(Cl)c(C3CCC3)c2)o1` [WO2025054369, Example 58] had an IC50 of over 10000 nM.

As for `CC1CC2CC(C1)N2C(=O)Nc1ccc(Cl)c([C@H]2C[C@@H](F)C2)c1` (some centres not stated) [WO2025054369, Example 49], the IC50 is under 1000 nM.

The compound `Cc1ccc(NC(=O)N2C3CC(C)CC2C3)cc1C1CCC1C#N` (configuration not stated) [WO2025054369, Example 6] registered an IC50 of under 1000 nM.

Take `Cc1ccc(NC(=O)N2C3CC(C)CC2C3)cc1C12CC(F)(C1)C2` (configuration not stated) [WO2025054369, Example 23]: the IC50 is under 1000 nM.

For `Cc1nnc([C@@]23CCC[C@@H](C2)N3C(=O)Nc2ccc(Cl)c(C3CCC3)c2)o1` [WO2025054369, Example 59], the half-maximal inhibitory concentration (IC50) worked out at 5500 nM.

The compound `CC1CC2CC(C1)N2C(=O)Nc1ccc(Cl)c([C@@H]2CC[C@]2(C)O)c1` (some centres not stated) [WO2025054369, Example 46] yielded a half-maximal inhibitory concentration (IC50) of under 1000 nM.

Take `CC1CC2CC(C1)N2C(=O)Nc1ccc(Cl)c([C@@H]2CC[C@@H]2n2ccnn2)c1` (relative stereo) [WO2025054369, Example 28]: the half-maximal inhibitory concentration (IC50) is under 1000 nM.

Regarding `CC1CC2CC(C1)N2C(=O)Nc1ccc(Cl)c(N2CC[C@@H]2C#N)c1` (some centres not stated) [WO2025054369, Example 71], the IC50 is under 1000 nM.

In turn, `N#C[C@H]1CC[C@H]1c1cc(NC(=O)N2C3CC2CC(C(F)(F)F)C3)ccc1C(F)(F)F` (some centres not stated) [WO2025054369, Example 52] had a half-maximal inhibitory concentration (IC50) of 5500 nM.

On to `Cc1nnc(C23CC(C)CC(C2)N3C(=O)Nc2ccc(C(F)(F)F)c(C3CCC3)c2)o1` (configuration not stated) [WO2025054369, Example 2], for which the IC50 was under 1000 nM.

`C[C@@]1(O)CC[C@H](c2cc(NC(=O)N3C4CC3CC(C(F)(F)F)C4)ccc2Cl)C1` (some centres not stated) [WO2025054369, Example 67] displayed a half-inhibitory concentration (IC50) of under 1000 nM.

`C[C@@H]1C[C@@H]2C[C@H](C1)N2C(=O)Nc1ccc(Cl)c(N2CCNC2=O)c1` [WO2025054369, Example 96] displayed an IC50 of under 1000 nM.

`Cc1nnc([C@@]23C[C@@H](C[C@@H](C(F)(F)F)C2)N3C(=O)Nc2ccc(Cl)c(C3CCC3)c2)o1` [WO2025054369, Example 68] displayed an IC50 of under 1000 nM.

`CC1CC2CC(C1)N2C(=O)Nc1ccc(Cl)c(C2CC(C)(O)C2)c1` (configuration not stated) [WO2025054369, Example 38] gave an IC50 of under 1000 nM.

On to `CC1CC2CC(C1)N2C(=O)Nc1ccc(Cl)c(N2CC[C@@H](O)C2)c1` (some centres not stated) [WO2025054369, Example 87], for which the IC50 is under 1000 nM.

Consider `CC1CC2CC(C1)N2C(=O)Nc1ccc(Cl)c(N2CC(OCCN)C2)c1` (configuration not stated) [WO2025054369, Example 86], for which the half-inhibitory concentration (IC50) is over 10000 nM.

In turn, `CC1CC2CC(C1)N2C(=O)Nc1ccc(Cl)c(C2CC(O)C2)c1` (configuration not stated) [WO2025054369, Example 78] showed a concentration for half-maximal inhibition (IC50) of under 1000 nM.

For the compound `CC1CC2CC(C1)N2C(=O)Nc1ccc(Cl)c([C@@H]2CC[C@@H]2C#N)c1` (some centres not stated) [WO2025054369, Example 9], the IC50 was under 1000 nM.

On to `CC1CC2CC(C1)N2C(=O)Nc1ccc(Cl)c([C@@H]2CC[C@H]2n2cnnc2)c1` (relative stereo) [WO2025054369, Example 31], for which the IC50 was under 1000 nM.

For the compound `C[C@@]1(O)CC[C@@H](c2cc(NC(=O)N3C4CC3CC(C(F)(F)F)C4)ccc2Cl)C1` (some centres not stated) [WO2025054369, Example 65], 5500 nM corresponded to half-maximal inhibition (IC50).

In turn, `C[C@]1(O)CC[C@H](c2cc(NC(=O)N3C4CC3CC(C(F)(F)F)C4)ccc2Cl)C1` (some centres not stated) [WO2025054369, Example 64] came in with an IC50 of under 1000 nM.

As to `N#C[C@H]1CC[C@H]1c1cc(NC(=O)N2C3CCC2CC(C(F)(F)F)C3)ccc1Cl` (relative stereo; form 1) [WO2025054369, Example 44], the IC50 was under 1000 nM.

Regarding `CC1CC2CC(C1)N2C(=O)Nc1ccc(Cl)c(N2CC[C@H](O)C2)c1` (some centres not stated) [WO2025054369, Example 88], the 50% inhibitory concentration (IC50) is under 1000 nM.

As for `Cc1ccc(NC(=O)N2C3CCCC2C3)cc1C1CN(CC(F)(F)F)C1` [WO2025054369, Example 26], the IC50 was 5500 nM.

As to `CC1CC2CC(C1)N2C(=O)Nc1ccc(Cl)c([C@H]2CC[C@@]2(C)O)c1` (some centres not stated) [WO2025054369, Example 47], the IC50 was over 10000 nM.

Regarding `C[C@@H]1C[C@@H]2C[C@H](C1)N2C(=O)Nc1ccc(Cl)c(N2CC(O)C2)c1` [WO2025054369, Example 92], the IC50 is under 1000 nM.

Regarding `N#C[C@H]1CC[C@@H]1c1cc(NC(=O)N2C3CC2CC(C(F)(F)F)C3)ccc1C(F)(F)F` (some centres not stated) [WO2025054369, Example 54], the concentration for half-maximal inhibition (IC50) was under 1000 nM.

With `N#C[C@H]1CC[C@H]1c1cc(NC(=O)N2C3CC2CC(C(F)(F)F)C3)ccc1Cl` (some centres not stated) [WO2025054369, Example 32], the IC50 is under 1000 nM.

Turning to `CC1CC2CC(C1)N2C(=O)Nc1cc(F)c(Cl)c([C@@H]2CC[C@@H]2C#N)c1` (some centres not stated) [WO2025054369, Example 34], the half-inhibitory concentration (IC50) was under 1000 nM.

For the compound `CC1CC2CC(C1)N2C(=O)Nc1ccc(Cl)c(N2CC(OCCO)C2)c1` (configuration not stated) [WO2025054369, Example 85], inhibition was half-maximal at 5500 nM (IC50).

Compound `CC1CC2CC(C1)N2C(=O)Nc1ccc(Cl)c([C@@H]2CC[C@@H]2C(F)F)c1` (some centres not stated) [WO2025054369, Example 40] had an IC50 of under 1000 nM.

For the compound `N#C[C@@H]1CC[C@H]1c1cc(NC(=O)N2C3CC2CC(C(F)(F)F)C3)ccc1C(F)(F)F` (some centres not stated) [WO2025054369, Example 55], the IC50 was under 1000 nM.

With `CC1CC2CC(C1)N2C(=O)Nc1ccc(Cl)c(C2CCC2(F)F)c1` (configuration not stated) [WO2025054369, Example 76], the IC50 was under 1000 nM.

The compound `CC1CC2CC(C1)N2C(=O)Nc1ccc(Cl)c(N2CCC2CF)c1` (configuration not stated) [WO2025054369, Example 84] had an IC50 of under 1000 nM.

Consider `Cc1ccc(NC(=O)N2C3CC(C)CC2C3)cc1[C@@H]1CC[C@@H]1C#N` (some centres not stated) [WO2025054369, Example 7], for which the IC50 was under 1000 nM.

`CC1CC2CC(C1)N2C(=O)Nc1ccc(Cl)c([C@H]2CCC[C@@H]2C#N)c1` (some centres not stated) [WO2025054369, Example 62]: the concentration for half-maximal inhibition (IC50) is under 1000 nM.

Compound `CC1CC2CC(C1)N2C(=O)Nc1ccc(Cl)c([C@@H]2CC[C@H]2n2nccn2)c1` (relative stereo) [WO2025054369, Example 29] showed an IC50 of 5500 nM.

`Cc1ccc(NC(=O)N2C3CC(C)CC2C3)cc1C(C)C#N` (configuration not stated) [WO2025054369, Example 5] returned a 50% inhibitory concentration (IC50) of under 1000 nM.

`CC1CC2CC(C1)N2C(=O)Nc1ccc(Cl)c([C@H]2CC[C@@H]2C(F)F)c1` (some centres not stated) [WO2025054369, Example 50] showed an IC50 of under 1000 nM.

With `Cc1ccc(NC(=O)N2C3CCCC2C3)cc1C12CC(C)(C1)C2` [WO2025054369, Example 24], the IC50 was under 1000 nM.

For `CC1CC2CC(C1)N2C(=O)Nc1ccc(Cl)c([C@H]2C[C@@H](O)C2)c1` (some centres not stated) [WO2025054369, Example 37], the IC50 is under 1000 nM.

As to `C[C@@H]1C[C@@H]2C[C@H](C1)N2C(=O)Nc1ccc(Cl)c(N2CCC2)c1` [WO2025054369, Example 95], the concentration for half-maximal inhibition (IC50) is under 1000 nM.

Consider `CC1CC2CC(C1)N2C(=O)Nc1ccc(Cl)c(C23CC(C2)C3)c1` (configuration not stated) [WO2025054369, Example 20], for which the half-maximal inhibitory concentration (IC50) is under 1000 nM.
